Earlier results, collected in patent US20250312353A1, “DRUG R[…] TREATMENT OF […] MALFORMATIONS” (University of South Carolina, priority 2024, published 2025).

Tests used:
host macrophage = settings: bacterial infection
[1] = system: human lung tumor associated endothelial cell; settings: on matrigel; even in the presence of VEGF

For `COc1nc2ccc(Br)cc2cc1[C@@H](c1ccccc1)[C@@](O)(CCN(C)C)c1cccc2ccccc12` [bedaquiline], the “effect on host macrophage innate immune resistance” value (host macrophage) is listed as “activate host macrophage innate immune resistance to bacterial infection” and the “effect on capillary network formation” value [1] is listed as “inhibit capillary network formation”.
